Columns and labels:
[1] = test system: susceptible durum line used as a check; assay: Tolerance test, susceptible durum check; format: in vivo, T. turgidum ssp durum; conditions: 80 g/h of imazamox
[2] = test system: EMS-treated Triticum monococcum accession TM23; assay: Selection of tolerant plants after EMS mutagenesis; format: in vivo; conditions: 40 g/ha of imazamox, approximately 2.4 million plants treated
Protocol: (§1) Approximately 15,000 seeds of the Triticum monococcum spring habit accession “TM23” was treated with EMS. The method used was: (1) presoak seed in water for four hours, (2) treat with 0.3% EMS for 16 hours, (3) rinse in water for 8 hours, (4) air-dry for four hours, and (5) plant the seed. Some of the harvested seed was further increased without selection for tolerance to imidazolinone herbicides. The harvested seed was planted and treated with 40 g/ha of imazamox. A total of 120 kg of seed was planted, resulting in approximately 2.4 million plants treated, assuming a kernel weight of 35 mg and 70% seedling emergence. The generation of seed screened ranged from M2 to M5, with over 72% of seed at least M3. Five plants were identified as tolerant, designated EM1 through EM5, and transplanted to a greenhouse for seed production. EM2 was increased under imidazolinone herbicide selection prior to initial field testing (Example 4).

[3] = test system: backcross-derived plants in populations P00.35 and P00.45; assay: Segregation of backcross-derived plants P00.35 and P00.45; format: in vivo, T. aestivum; conditions: 20 g/h of imazamox; single heterozygous tolerance gene
From the text: (§2) EMIMI is the designation of the T. monococcum EM2 source parent. Crocus is the designation of the T. aestivum ssp aestivum parent used. 605 florets of crocus were pollinated with EMIMI pollen, resulting in 84 F1 seed. 38,409 florets of the F1 plants were pollinated using Crocus pollen, resulting in 2 embryos which were embryo-rescued. The resultant BC1F1 plants were selfed to BC1F2 and treated with 20 g/ha of imazamox. […] Resistant plants were crossed by the bread wheat variety Tea1, representing the 3rd dose of bread wheat. Plants of the resultant line, with a pedigree of Crocus*2/EMIMI//CDC Tea1/3/ were crossed with either AC Elsa or AC Superb and coded respectively, 98PH8 (Elsa cross) and 98PH9 (Superb cross), 98PH8 was crossed an additional six times with AC Elsa and 98PH8 was crossed an additional six times with AC Superb. Two populations were coded as follows: • P00.35=98PH8/6*Elsa=Crocus*2/EM2//CDC Tea1/3/7*AC Elsa • P00.45=98PH9/6*Superb=Crocus*2/EM2//CDC Tea1/3/7*AC Superb. Segregation of the backcross-derived plants in both populations fit an expected 1:1 tolerant:susceptible single gene model when treated with 20 g/h of imazamox. […] Doubled haploids were produced from each population using the maize pollination method. Seven resistant DH lines were obtained from P00.35 and 78 resistant DH lines were obtained from P00.45.

[4] = test system: double-haploid derived line of EM2+FS4; assay: Seedling injury rating, two-gene line EM2+FS4; format: in vivo, wheat
Protocol: (§3) Four genotypes were tested for tolerance to two different rates of imazamox. Genotypes included an FS4 only line, BW755; Tea1 15A, previously described as having two independent loci for tolerance to Imi-herbicides; a double-haploid derived line of EM2+FS4, and a line derived from the cross of 15A and 11A, through conventional bulk selection of the most tolerant plants over successive generations at increasing rates of imazamox. Rates of imazamox included 200 and 600 grams per hectare. Seedling injury of the 18 to 25 plants per treatment per genotype was rated on a per plant basis using five categories ranging from death to no injury.

[5] = test system: BC1F2 plants of Crocus*2/EMIMI; assay: Herbicide treatment of BC1F2 plants (Crocus x EMIMI); format: in vivo, T. aestivum x T. monococcum; conditions: 20 g/ha of imazamox, 24 plants treated
From the text: as §2

[6] = test system: P00.45 (EM2 in a hexaploid background); assay: Tolerance of doubled haploid line P00.45 (parental check in allelism studies); format: in vivo, T. aestivum ssp aestivum; conditions: 20 g/ha imazamox
From the text: as §2, with “P00.45. […]” for “P00.45.”

[7] = test system: 00DIMI#17 (EM2 in durum background); assay: Tolerance of EM2 durum recovery 00DIMI#17; format: in vivo, T. turgidum ssp durum
Protocol: (§4) T. aestivum was used as the bridging species to transfer the EM2 gene from T. monococcum to T. turgidum. In each generation, plants were treated with at least a 20 g/h rate of imazamox prior to selecting plants as parents. An intermediate T. aestivum conversion with the pedigree “Crocus*2/EM2//CDC Tea1/3/2*AC Superb” tolerant to imazamox was crossed by the durum line AC Avonlea. The resultant F1 plants were selfed to produce an F2 population, from which 52/390 plants were identified as resistant (no injury from herbicide application). Some of these were used as females and crossed by AC Avonlea. The resultant BC1F1 plants were again crossed by AC Avonlea. For the subsequent two generations, AC Avonlea was used as the female. The resultant line was designated 00DIMI#17 and had the pedigree: AC Avonlea*2/3/Crocus*2/EM2//CDC Tea1/3/2*AC Superb//3*AC Avonlea. This line was selfed to the F2, and F2 plants treated with 40 g/h of imazamox. Resistant F2 plants were advanced to the F4 generation.
(§5) The breeding history of the lines tested was previously described (Example 2). […] The doubled haploid derived line P00.45, composed of EM2 in a hexaploid background, was tolerant to 20 g/ha imazamox as a parental check in allelism studies described in Example 3; all plants of the susceptible hexaploid check were killed at that rate.

[8] = test system: line derived from the cross of 15A and 11A; assay: Seedling injury rating, three-gene line; format: in vivo, wheat
Protocol: as §3

[9] = test system: F2 population of Crocus*2/EM2//CDC Tea1/3/2*AC Superb crossed by AC Avonlea; assay: Herbicide selection in F2 of EM2 conversion x AC Avonlea; format: in vivo, T. aestivum x T. turgidum; conditions: at least a 20 g/h rate of imazamox
Protocol: as §4

Tea1 15A = assay: Seedling injury rating, two-gene line Tea1 15A; format: in vivo, wheat
Protocol: as §3

[10] = test system: susceptible hexaploid check / susceptible wheat plants; assay: Tolerance test, susceptible hexaploid check; format: in vivo, T. aestivum
From the text: In all the following discussion, the application rate of the imidazolinone herbicide imazamox that was used in the inheritance studies was 20 grams per hectare.
as §5

[11] = test system: Einkorn check (non-herbicide tolerant); assay: Field evaluation of herbicide injury, Einkorn check; format: in vivo, Triticum monococcum
Protocol: (§6) The EM2 line tolerant to imazamox (Example 1) was evaluated at a single field location for various agronomic characteristics that could be affected by herbicide injury. The 1998 data are means of two replications. Yield data from 1999 and 2000 are means of four replications. The other data from 1999 are means of two replications.
(§7) The EM2 line was evaluated for overall crop injury at three rates of imazamox, three times during the growing season.

[12] = test system: EM2 line in Einkorn background; assay: Field evaluation of herbicide injury, EM2 line; format: in vivo, Triticum monococcum; conditions: for overall crop injury: three rates of imazamox
Protocol: as §1, §6, §7

BW755 (FS4 only line) = assay: Seedling injury rating, one-gene line; format: in vivo, wheat; conditions: 200 and 600 grams per hectare
Protocol: as §3

[13] = higher rate, 600 grams per hectare
[14] = lower rate, 200 grams per hectare

## COCc1cnc(C2=NC(C)(C(C)C)C(=O)N2)c(C(=O)O)c1 (centres unmarked) [imazamox]
[1]
  plant kill: killed
[2]
  plants identified as tolerant: Five
[3]
  injury of plants scored as tolerant: sustained some injury
[4]; 200 and 600 grams per hectare
  plants killed: No plants were killed
[4]; [13]
  seedling injury: all were injured
[4]; [14]
  seedling injury: No injury
[5]
  fully resistant plants: 11
  plants that showed some injury: 7
  susceptible plants: 6
[6]
  tolerance: tolerant
[7]; F4:5 lines, 80 g/h of imazamox
  tolerance of plants: all plants were tolerant
[7]; F4:5 lines, 124 plants treated with 80 g/h
  susceptible plants: no susceptible plants were found
[7]; F4 plants, 80 g/h imazamox
  survival of plants: All 53 F4 plants tested survived
[8]; 200 and 600 grams per hectare
  plants killed: No plants were killed
[8]; 200 and 600 grams per hectare, line still segregating
  seedling injury: some plants exhibiting injury at both rates
[8]; highest rate, 600 grams per hectare
  plants without injury: approximately half the plants had no injury
[9]
  plants identified as resistant (no injury from herbicide application): 52/390
Tea1 15A; 200 and 600 grams per hectare
  plants killed: No plants were killed
Tea1 15A; [13]
  seedling injury: all were injured
Tea1 15A; [14]
  seedling injury: No injury
[10]; 20 g/ha imazamox
  plant kill: killed
[10]; 20 grams per hectare
  plant kill at the rate of the inheritance studies: sufficient to kill
[11]; 40 grams of imazamox, field
  susceptibility of plants: all plants dying
[11]; 2000, non-herbicide tolerant check
  overall crop injury: virtually killed
[12]; 40 g/ha rate, field
  tolerance: excellent tolerance
[12]; 1999, three times during the growing season
  overall crop injury: only slight injury
[12]; 2000
  overall crop injury: no injury
BW755 (FS4 only line)
  plants killed: No plants were killed
  seedling injury: injured at both rates
